Values quoted from earlier work as cited in patent publication US20020004584A1, “HIV immune adjuvant therapy” (priority 2000, published 2002).
Values belong to the compound of their own block, whether it stands above or below them.

How the values were obtained:
[1] = system: HIV-1; conditions: preclinical studies
[2] = in vivo
[3] = in vivo; remark: listed apart in the source

SMILES: NC(=O)NO [Hydroxyurea]
effect on the activity of didanosine [1]: synergistic effect

SMILES: CC(C)c1nc(CN(C)C(=O)N[C@H](C(=O)N[C@@H](Cc2ccccc2)C[C@H](O)[C@H](Cc2ccccc2)NC(=O)OCc2cncs2)C(C)C)cs1 [Ritonavir, ritonavir]
adverse effects [2]: troublesome adverse effects

bioavailability [3]: poor bioavailability
SMILES: CC(C)(C)NC(=O)[C@@H]1C[C@@H]2CCCC[C@@H]2CN1C[C@@H](O)[C@H](Cc1ccccc1)NC(=O)[C@H](CC(N)=O)NC(=O)c1ccc2ccccc2n1 [saquinavir]
